US20260083767A1, “SOLID DOSAGE FORM OF A SMALL MOLECULE ANTIVIRAL AND USES THEREOF” (Merck Sharp & Dohme LLC, priority 2022, published 2026)
Like-named read-outs stand apart in the source and are kept apart here.

Legend:
[1] = species not stated; cited from earlier work
[2] = Aqueous solubility and wettability of Compound A; assay type: physicochemical
Excerpt: As the levels of Compound A increases in the formulation, the flow properties of the pre-roller compaction powder blend worsens due to the cohesive nature of the material. […] As the levels of Compound A increases in the formulation, the property of the powder blend is dominated by the properties of Compound A, resulting in poor wettability, dispersibility and uniformity in water. Accordingly, the proportion of Compound A in the formulations having desirable properties is limited.

[3] = non-human primates; cited from earlier work

aqueous solubility [2] | wettability in aqueous media ([2]; aqueous media) | Compound | oral bioavailability [1] | oral bioavailability [3]
good | poor | CC(C)C(=O)OC[C@H]1O[C@@H](n2ccc(NO)nc2=O)[C@H](O)[C@@H]1O [Compound A, {(2R,3S,4R,5R)-3,4-dihydroxy-5-[4-(hydroxyimino)-2-oxo-3,4-dihydropyrimidin-1 (2H)-yl]oxolan-2-yl}methyl 2-methylpropanoate] | orally bioavailable | 
 |  | O=c1nc(NO)ccn1[C@@H]1O[C@H](CO)[C@@H](O)[C@H]1O [NHC, 1-((2R,3R,4S,5R)-3,4-dihydroxy-5-(hydroxymethyl)tetrahydrofuran-2-yl)-4-(hydroxyamino)pyrimidin-2 (1H)-one] |  | limited
